Source: paper PMC11202169, “A Novel Fluorescence-Based Microplate Assay for High-Throughput Screening of hSULT1As Inhibitors” (Biosensors, 2024)
“And” between values parts separate entries of the source, which are not always exact repeats. Equal entries are not always repeated. Where two headings read alike, the source gives them in different places.

Legend:
Type in all cases: biochemical
hSULT1A3 = molecular target: T1, hSULT1A3 (Homo sapiens, UniProt P0DMM9); assay: Fluorescence-based microplate inhibition assay, hSULT1A3-catalyzed HN-241 4-O-sulfation; details: for activity at 10 µM: read-out: Residue activity (%) hSULT1A3; for IC50: hSULT1A3-catalyzed HN-241 4-O-sulfation
T1 construct: 6-histidine tag (N); TEV site (N); made in house; host or cells: Escherichia coli BL21 (DE3), pET29a(+)
T1 sequence (P0DMM9 whole entry): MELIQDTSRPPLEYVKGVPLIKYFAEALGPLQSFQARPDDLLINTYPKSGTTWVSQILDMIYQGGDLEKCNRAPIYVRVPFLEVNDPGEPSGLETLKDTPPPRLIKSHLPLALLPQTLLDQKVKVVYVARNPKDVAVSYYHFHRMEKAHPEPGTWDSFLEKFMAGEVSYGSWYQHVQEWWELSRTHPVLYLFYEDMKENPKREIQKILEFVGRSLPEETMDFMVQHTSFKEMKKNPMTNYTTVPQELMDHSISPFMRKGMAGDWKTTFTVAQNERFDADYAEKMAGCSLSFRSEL

hSULT1A2 = molecular target: T2, hSULT1A2 (Homo sapiens, UniProt P50226); assay: Fluorescence-based microplate inhibition assay, hSULT1A2-catalyzed HN-241 4-O-sulfation; details: for remaining activity at 10 µM: 0.25 h, read-out: Residue activity (%) hSULT1A2
T2 construct: 6-histidine tag (N); TEV site (N); made in house; host or cells: Escherichia coli BL21 (DE3), pET29a(+)
T2 sequence (P50226 whole entry): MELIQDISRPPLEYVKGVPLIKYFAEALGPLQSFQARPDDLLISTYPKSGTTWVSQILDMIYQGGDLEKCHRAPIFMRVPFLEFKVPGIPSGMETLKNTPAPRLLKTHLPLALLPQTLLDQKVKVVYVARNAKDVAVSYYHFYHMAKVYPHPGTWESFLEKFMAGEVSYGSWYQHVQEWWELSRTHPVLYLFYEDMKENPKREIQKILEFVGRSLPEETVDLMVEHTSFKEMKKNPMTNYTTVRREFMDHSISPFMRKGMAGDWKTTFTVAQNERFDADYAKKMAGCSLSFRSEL

hSULT1A1 = molecular target: T3, hSULT1A1 (Homo sapiens, UniProt P50225); assay: Fluorescence-based microplate inhibition assay, hSULT1A1-catalyzed HN-241 4-O-sulfation; details: for activity at 1 µM: read-out: Residue activity (%) hSULT1A1;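 on all read-outs here: reaction started with 200 µM PAPS at 37 °C, fluorescence read continuously (Ex 350 nm, Em 450 nm), activity expressed relative to DMSO-only control without inhibitor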
T3 construct: 6-histidine tag (N); TEV site (N); made in house; host or cells: Escherichia coli BL21 (DE3), pET29a(+)
T3 sequence (P50225 whole entry): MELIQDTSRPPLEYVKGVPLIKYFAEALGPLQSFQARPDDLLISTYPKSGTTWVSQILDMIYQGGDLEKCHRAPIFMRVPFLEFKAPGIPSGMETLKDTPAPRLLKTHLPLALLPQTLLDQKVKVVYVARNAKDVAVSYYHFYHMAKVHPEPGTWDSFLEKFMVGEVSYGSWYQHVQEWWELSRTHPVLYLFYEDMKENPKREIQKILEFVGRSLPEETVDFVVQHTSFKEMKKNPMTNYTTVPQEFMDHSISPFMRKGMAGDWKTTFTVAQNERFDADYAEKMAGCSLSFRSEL

[1] = test compound 10 μM, HN-241 10 μM, 15 min
[2] = test compound 10 μM, HN-241 5 μM, 15 min
[3] = test compound 1 μM, HN-241 1 μM, 15 min
[4] = hSULT1A2-catalyzed HN-241 4-O-sulfation

SMILES	Residue activity (%) hSULT1A3 (hSULT1A3; [1])	Residue activity (%) hSULT1A2 (hSULT1A2; [2])	Residue activity (%) hSULT1A1 (hSULT1A1; [3])	activity at 10 µM (hSULT1A3; [1]) [%]	remaining activity at 10 µM (hSULT1A2; [2]) [%]	activity at 1 µM (hSULT1A1; [3]) [%]	also measured
O=C1C=CC(=O)c2cc3ccccc3cc21 [1,4-Anthracenedione]	94.23%	1.06%	29.15%	–	–	–	–
COc1cc2c(c(O)c1OC)C(=O)c1c(cc(C)c(O)c1OC)C2=O [1,7-Dihydroxy-2,3,8-trimethoxy-6-methylanthracene-9,10-dione]	61.63%	0.20%	0.00%	–	–	–	–
C[C@]12CC[C@H](O)C[C@@]1(O)CC[C@@H]1[C@@H]2CC[C@]2(C)[C@@H](c3ccc(=O)oc3)CC[C@]12O [3β,5,14-Trihydroxy-5β-bufa-20,22-dienolide]	114.49%	109.91%	121.35%	–	–	–	–
COc1ccc(/C=C/C(=O)c2ccccc2)cc1 [4-Methoxychalcone]	–	75.95%	78.44%	–	–	–	–
O=c1cc(-c2ccccc2)oc2ccc(O)c(O)c12 [5,6-Dihydroxy-2-phenylchromen-4-one]	68.42%	8.07%	18.14%	–	–	–	–
COc1c2occc2cc2ccc(=O)oc12 [8-Methoxypsoralen]	–	–	–	119	110	107	–
CC(C)=CCC[C@@](C)(O)[C@H]1CC[C@]2(C)[C@@H]1[C@H](O)C[C@@H]1[C@@]3(C)CC[C@H](O)C(C)(C)[C@@H]3[C@@H](O[C@@H]3O[C@H](CO)[C@@H](O)[C@H](O)[C@H]3O[C@@H]3O[C@@H](C)[C@H](O)[C@@H](O)[C@H]3O)C[C@]12C [20(R)-Ginsenoside Rg2]	122.28%	104.32%	104.07%	–	–	–	–
CC(C)=CCC[C@@](C)(O)[C@H]1CC[C@]2(C)[C@@H]1[C@H](O)C[C@@H]1[C@@]3(C)CC[C@H](O[C@@H]4O[C@H](CO)[C@@H](O)[C@H](O)[C@H]4O)C(C)(C)[C@@H]3CC[C@]12C [20(R)-Ginsenoside Rh2]	116.23%	114.69%	98.01%	–	–	–	–
CC(C)=CCC[C@@](C)(O)[C@H]1CC[C@]2(C)[C@@H]1[C@H](O)C[C@@H]1[C@@]3(C)CC[C@H](O)C(C)(C)[C@@H]3[C@@H](O[C@@H]3O[C@H](CO)[C@@H](O)[C@H](O)[C@H]3O[C@@H]3OC[C@@H](O)[C@H](O)[C@H]3O)C[C@]12C [20(R)-Notoginsenoside R2]	100.25%	109.60%	110.54%	–	–	–	–
CC(C)=CCC[C@](C)(O)[C@H]1CC[C@]2(C)[C@@H]1[C@H](O)C[C@@H]1[C@@]3(C)CC[C@H](O[C@@H]4O[C@H](CO)[C@@H](O)[C@H](O)[C@H]4O)C(C)(C)[C@@H]3CC[C@]12C [20(S)-Ginsenoside Rh2]	105.44%	110.74%	85.94%	–	–	–	–
CC(C)=CCC[C@@](C)(O)[C@H]1CC[C@]2(C)[C@@H]1[C@H](O)C[C@@H]1[C@@]3(C)CC[C@H](O)C(C)(C)[C@@H]3CC[C@]12C [(20R)-Protopanaxdiol]	110.20% and 105.48%	97.81% and 101.25%	99.25% and 99.62%	–	–	–	–
CC(C)=CCC[C@](C)(O)[C@H]1CC[C@]2(C)[C@@H]1[C@H](O)C[C@@H]1[C@@]3(C)CC[C@H](O)C(C)(C)[C@@H]3CC[C@]12C [(20S)-Protopanaxdiol]	81.62%	95.73%	99.75%	–	–	–	–
Oc1cc(O)c2c(c1)O[C@@H](c1ccc(O)c(O)c1)[C@H](O)C2 [(-)-Catechin]	–	–	–	46.8	101	41.4	–
COc1ccc(-c2cc(=O)c3c(O)cc(O)cc3o2)cc1 [Acacetin]	–	–	–	58.1	0.47	0.38	–
O=C(/C=C/C=C/c1ccccc1)CCc1ccccc1 [Alnustone]	111.42%	80.60%	74.39%	–	–	–	–
O=C1c2cccc(O)c2C(=O)c2c(O)cc(CO)cc21 [Aloeemodin]	–	–	–	61.3	0	0.21	IC50 (hSULT1A2; [4]): 118 ± 7.2 nM

SMILES	Residue activity (%) hSULT1A3 (hSULT1A3; [1])	Residue activity (%) hSULT1A2 (hSULT1A2; [2])	Residue activity (%) hSULT1A1 (hSULT1A1; [3])	activity at 10 µM (hSULT1A3; [1]) [%]	remaining activity at 10 µM (hSULT1A2; [2]) [%]	activity at 1 µM (hSULT1A1; [3]) [%]	also measured
COc1cc(O)cc2c1C(=O)C[C@@H](c1ccccc1)O2 [Alpinetin]	–	–	–	115	49.5	69.8	–
O=C1CCC[C@@H]2[C@H]3CCC[N@+]4([O-])CCC[C@@H](CN12)[C@@H]34 [Ammothamnine]	100.34%	96.56%	99.18%	–	–	–	–
COc1c(O)cc2c(c1O)C(=O)c1c(cc(C)c(O)c1OC)C2=O [Aurantio-obtusin]	–	–	–	45.2	0	0.45	IC50 (hSULT1A2; [4]): 492 ± 15.2 nM
O=c1cc(-c2ccccc2)oc2cc(O)c(O)c(O)c12 [Baicalein]	–	–	–	–	–	–	IC50 (hSULT1A3): 6320 ± 195 nM; IC50 (hSULT1A1; hSULT1A1-catalyzed HN-241 4-O-sulfation): 45.2 ± 3.91 nM
COc1ccc(-c2cc(=O)c3c(O)cc(O)cc3o2)cc1-c1c(O)cc(O)c2c(=O)cc(-c3ccc(O)cc3)oc12 [Bilobetin]	–	–	–	42.3	0	24	IC50 (hSULT1A2; [4]): 55.5 ± 1.3 nM; Inhibition manner (hSULT1A2; inhibition kinetic assay, hSULT1A2-catalyzed HN-241 4-O-sulfation): mixed inhibition
C[C@]12CC[C@H](O)C[C@H]1CC[C@@H]1[C@@H]2CC[C@]2(C)[C@@H](c3ccc(=O)oc3)CC[C@]12O [Bufalin]	–	–	–	–	–	–	activity at 10 µM (hSULT1A3): 124%; remaining activity at 10 µM (hSULT1A2): 106%; activity at 1 µM (hSULT1A1): 103%
COc1ccc(-c2coc3cc(O[C@@H]4O[C@H](CO)[C@@H](O)[C@H](O)[C@H]4O)ccc3c2=O)cc1O [Calycosin-7-O-β-D-glucoside]	54.16%	22.81%	2.77%	–	–	–	–
COc1cc(O)cc(O)c1C(=O)/C=C/c1ccccc1 [Cardamonin]	120.65% and 88.76%	34.41% and 31.76%	63.24% and 71.38%	–	–	–	–
C[C@H](CCC(=O)O)[C@H]1CC[C@H]2[C@@H]3[C@H](O)C[C@@H]4C[C@H](O)CC[C@]4(C)[C@H]3CC[C@]12C [Chenodeoxycholic acid]	–	–	–	129	98.2	96.5	–
COc1cc2c(c(OC)c1OC)C(=O)c1c(cc(C)c(O)c1OC)C2=O [Chrysoobtusin]	–	–	–	5.28	0.09	1.84	IC50 (hSULT1A3): 1520 ± 79.1 nM
Cc1cc(O)c2c(c1)C(=O)c1cccc(O)c1C2=O [Chrysophanic acid]	–	–	–	99.3	45.4	3.52	–
C[C@H]1C(=O)O[C@@H]2CCN3CC=C(COC(=O)[C@](C)(O)[C@]1(C)O)[C@H]23 [Crotaline]	122.18%	97.30%	128.03%	–	–	–	–
COc1ccc(-c2cc(=O)c3c(O)cc(O)cc3o2)cc1O [Diosmetin]	–	–	–	39.1	57	0	–
COc1cc(O)c2c(c1)C(=O)c1cc(C)cc(O)c1C2=O [Emodin-3-methyl ether]	103.18%	89.81%	54.41%	–	–	–	–
COC[C@]12CN(C)[C@@H]3[C@@H]4[C@H](OC)[C@H]1[C@@]3([C@@H](OC)C[C@H]2O)[C@@H]1C[C@@]2(O)[C@H](OC(=O)c3ccccc3)[C@@H]1[C@]4(OC(C)=O)[C@@H](O)[C@@H]2OC [Mesaconitine]	110.31%	114.51%	–	–	–	–	–
CC(C)=CCC[C@](C)(O)[C@H]1CC[C@]2(C)[C@@H]1[C@H](O)C[C@@H]1[C@@]3(C)CC[C@H](O)C(C)(C)[C@@H]3[C@@H](O[C@@H]3O[C@H](CO)[C@@H](O)[C@H](O)[C@H]3O[C@@H]3OC[C@@H](O)[C@H](O)[C@H]3O)C[C@]12C [Notoginsenoside R2]	–	108.58%	105.59%	–	–	–	–
